Reference: ChEMBL document CHEMBL3792337, “Cardiac Glycosides from the Seeds of Thevetia peruviana” (J Nat Prod, 2016)

Assays:
[1] = system: MGC-803; assay: Induction of apoptosis in human MGC803 cells after 24 hrs by annexin V-FITC/propidium iodide staining-based flow cytometry; type: functional, cell-based
[2] = Cytotoxicity against human LO2 cells after 48 hrs by MTT assay; type: cell-based; settings: L02, 48 h
[3] = system: SW1990; assay: Cytotoxicity against human SW1990 cells after 48 hrs by MTT assay; type: functional, cell-based; settings: SW1990, 48 h
[4] = Cytotoxicity against human MGC803 cells after 48 hrs by MTT assay; type: functional, cell-based; settings: MGC-803, 48 h
[5] = Cytotoxicity against human P15 cells after 48 hrs by MTT assay; type: functional, cell-based; settings: P15, 48 h

Structure (SMILES)	Activity [1]	IC50 [2]	IC50 [3]	IC50 [4]	IC50 [5]
CO[C@H]1[C@H](O)[C@H](O[C@H]2CC[C@H]3[C@H](CC[C@@H]4[C@@H]3CC[C@]3(C)[C@@H](C5=CC(=O)OC5)CC[C@]43O)C2)O[C@@H](C)[C@@H]1O	Dose-dependent effect	> 10 µM	530 nM	570 nM	210 nM
CO[C@H]1[C@H](O)[C@H](O[C@H]2CC[C@@]3(C)[C@H](CC[C@@H]4[C@@H]3CC[C@]3(C)[C@@H](C5=CC(=O)OC5)CC[C@]43O)C2)O[C@@H](C)[C@@H]1O [NERIIFOLIN]	Dose-dependent effect	> 10 µM	30 nM	20 nM	60 nM
CO[C@H]1[C@H](O)[C@H](O[C@H]2CC[C@@]3(CO)[C@H](CC[C@@H]4[C@@H]3CC[C@]3(C)[C@@H](C5=CC(=O)OC5)CC[C@]43O)C2)O[C@@H](C)[C@@H]1O	Dose-dependent effect	> 10 µM	20 nM	40 nM	80 nM
CO[C@H]1[C@H](O)[C@H](O[C@H]2CC[C@@]3(C)[C@@H](CC[C@@H]4[C@@H]3CC[C@]3(C)[C@@H](C5=CC(=O)OC5)CC[C@]43O)C2)O[C@@H](C)[C@@H]1O [THEVEFOLIN]	Dose-dependent effect	> 10 µM	30 nM	370 nM	10 nM
CO[C@H]1[C@H](O)[C@H](O[C@H]2CC[C@H]3[C@H](CC[C@@H]4[C@@H]3CC[C@]3(C)[C@@H](C5=CC(=O)OC5)CC[C@]43O)C2)O[C@@H](C)[C@@H]1O[C@@H]1O[C@H](CO[C@@H]2O[C@H](CO)[C@@H](O)[C@H](O)[C@H]2O)[C@@H](O)[C@H](O)[C@H]1O	–	> 10 µM	3130 nM	8180 nM	> 10000 nM
CO[C@H]1[C@H](O)[C@H](O[C@H]2CC[C@@]3(C)[C@@H](CC[C@@H]4[C@@H]3CC[C@]3(C)[C@@H](C5=CC(=O)OC5)CC[C@]43O)C2)O[C@@H](C)[C@@H]1O[C@H]1O[C@@H](CO)[C@H](O)[C@@H](O)[C@@H]1O	–	> 10 µM	4540 nM	3420 nM	2680 nM
CO[C@H]1[C@H](O)[C@H](O[C@H]2CC[C@H]3[C@H](CC[C@@H]4[C@@H]3CC[C@]3(C)[C@@H](C5=CC(=O)OC5)CC[C@]43O)C2)O[C@@H](C)[C@@H]1O[C@H]1O[C@@H](CO)[C@H](O)[C@@H](O)[C@@H]1O	–	> 10 µM	8100 nM	> 10000 nM	3350 nM
